Consider one molecule from US20180346502A1, “Processes for the Preparation of SGLT-2 Inhibitors, Intermediates Thereof” (Emmennar Pharma Private Limited, priority 2017, published 2018).

A short description of this data set: Storage stability of amorphous empagliflozin at 5±3°C (HPLC chemical purity, PXRD). Type of data set: physicochemical. Particulars: for Chemical Purity (HPLC) / PXRD: Temp = 5 ± 3° C. As for the experimental part: • (a) (1S)-1,5-anhydro-1-C-[4-chloro-3-[[4-[[(3S)-tetrahydro-3-furanyl]oxy]phenyl]methyl]phenyl]-D-glucitol, i.e., empagliflozin (amorphous) • Apparatus: A liquid chromatographic system is to be equipped with variable • wavelength UV-Detector and Integrator. • Column: Promosil C18, 250×4.6 mm, 100 A°, 5 μm or equivalent • Column Temperature: 40° C. • Wavelength: 225 nm • Flow rate: 1.2 mL/min • Injection volume: 5 μL • Run Time: 60 min • Elution: Gradient • Diluent: Acetonitrile: Water (50:50 v/v) • Mobile phase A: Buffer solution • Mobile phase B: Acetonitrile: Water (95:5 v/v) • Buffer solution: Transfer accurately about 1 mL of ortho phosphoric acid into 1000 mL of milli-Q water, filter through 0.45 μm nylon membrane and sonicate to degas. • (b) Amorphous solid dispersion of empagliflozin and ethyl cellulose (EC) • Chromatographic conditions are same as given under (a). • (c) Amorphous solid dispersion of empagliflozin and hydroxypropyl cellulose (HPC) • Chromatographic conditions are same as given under (a), except for: • Wavelength: 220 nm • Column temperature: 35° C. • Mobile Phase B: Acetonitrile: Water (90:10 v/v) • (d) (1S)-1,5-anhydro-1-C-[4-chloro-3-[(4-ethoxyphenyl)methyl] phenyl]-D-glucitol i.e., dapagliflozin • Chromatographic conditions are same as given under (a), except for: • Column temperature: 35° C. • Run Time: 55 min • Mobile Phase B: Acetonitrile: Water (90:10 v/v)
The diffraction patterns were measured using Bruker D2 PHASER diffractometer equipped with LYNXEYE™ detector, used radiation Cu Kα (λ=1.54060 Å), excitation voltage: 30 kV, anode current: 10 mA, measured range: 3-40° 2θ, increment: 0.01° 2θ.

In the case of `OC[C@H]1O[C@@H](c2ccc(Cl)c(Cc3ccc(O[C@H]4CCOC4)cc3)c2)[C@H](O)[C@@H](O)[C@@H]1O` [Empagliflozin, (1S)-1,5-anhydro-1-C-[4-chloro-3-[[4-[[(3S)-tetrahydro-3-furanyl]oxy]phenyl]methyl]phenyl]-D-glucitol], the “Chemical Purity (HPLC)” value came out at 99.90 (Stability period 1 month); 99.88 (Stability period 3 months); 99.89 (Stability period 6 months); 99.88 (Stability period 12 months); 99.88 (Stability period Initial). Further, the PXRD result reads like this: (Stability period 1 month) “Amorphous”; (Stability period 3 months) “Amorphous”; (Stability period 6 months) “Amorphous”; (Stability period 12 months) “Amorphous”; (Stability period Initial) “Amorphous”. The “stable on storage (period)” value (storage at 5±3° C.) was found to be 12 months.
